These are literature values, as cited in PubChem BioAssay AID1259409 (Chemical Carcinogenesis Research Information System (CCRIS), 2018).

This data set relates to rodent chemically induced tumor inhibition, incidence and multiplicity. Kind of data set: CCRIS tumor inhibitor studies.

Turning to `Cc1c(C)c2c(c(C)c1O)CCC(C)(CCCC(C)CCCC(C)CCCC(C)C)O2` (centres undefined), the “tumour outcome (control, treated, inhibition, significance)” value reads like this: (Carcinogen: N-NITROSOMETHYLBENZYLAMINE, 937-40-6, Dose [Inhibitor]: 30, 172 MG/KG IN DIET BEGINNING POST CARCINOGEN TREATMENT AND CONTINUING FOR 22 WK (STUDY DURATION: 25 WK), Route [Inhibitor]: ORAL, Species: MOUSE, Strain/Sex: C57BL/FEMALE, Target Tissue: Type of Lesion: ESOPHAGUS: TUMOR, Dose [Carcinogen]: 0.2 MG/KG IN CORN OIL 3/WK FOR 3 WK, Promoter: ETHANOL, 64-17-5) 10/17 (59%), 6/16 (38%), 36%, not calculated; (Carcinogen: N-NITROSOMETHYLBENZYLAMINE, 937-40-6, Dose [Inhibitor]: 30, 172 MG/KG IN DIET BEGINNING POST CARCINOGEN TREATMENT AND CONTINUING FOR 22 WK (STUDY DURATION: 25 WK), Route [Inhibitor]: ORAL, Species: MOUSE, Strain/Sex: C57BL/FEMALE, Target Tissue: Type of Lesion: ESOPHAGUS: TUMOR, Dose [Carcinogen]: 0.2 MG/KG IN CORN OIL 3/WK FOR 3 WK, Promoter: NONE USED) 6/15 (40%), 3/15 (20%), 50%, not calculated; (Carcinogen: UVB IRRADIATION, Dose [Inhibitor]: 0, 25 MG IN 200 µL ACETONE 3/WK FOR DURATION OF STUDY BEGINNING 3 WK PRIOR TO IRRADIATION (STUDY DURATION: 33 WK), Route [Inhibitor]: DERMAL, Species: MOUSE, Strain/Sex: C3H/HEN/FEMALE, Target Tissue: Type of Lesion: SKIN: TUMOR, Dose [Carcinogen]: 6 J/M2/SEC 30 MIN/D, 5 D/WK FOR 27 WK, Promoter: NONE USED) 81%, 42%, 48%, p=0.0065.

Turning to `O=S(=O)([O-])[O-].O=S(=O)([O-])[O-].O=S(=O)([O-])[O-].[Fe+3].[Fe+3]`, the “tumour outcome (control, treated, inhibition, significance)” value reads like this: (Dose [Inhibitor]: 0, 15.5 UMOL (FE) INJECTED WITH CARCINOGEN INTO THIGH OF BOTH HIND LIMBS (STUDY DURATION: 79 WK), Route [Inhibitor]: INTRAMUSCULAR, Species: RAT, Strain/Sex: F344/MALE, Target Tissue: Type of Lesion: INJECTION SITE: SARCOMA, Dose [Carcinogen]: 2.5 MG PER SITE INJECTED INTO THIGH OF BOTH HIND LIMBS ONCE, Promoter: NONE USED) 100%, 98%, 2%, not significant; (Dose [Inhibitor]: 0, 30 UMOL (FE) INJECTED WITH CARCINOGEN INTO THIGH OF BOTH HIND LIMBS (STUDY DURATION: 79 WK), Route [Inhibitor]: INTRAMUSCULAR, Species: RAT, Strain/Sex: F344/MALE, Target Tissue: Type of Lesion: INJECTION SITE: SARCOMA, Dose [Carcinogen]: 2.5 MG PER SITE INJECTED INTO THIGH OF BOTH HIND LIMBS ONCE, Promoter: NONE USED) 100%, 45%, 55%, not calculated; (Dose [Inhibitor]: 0, 60 UMOL (FE) INJECTED INTO NAPE OF NECK (STUDY DURATION: 79 WK), Route [Inhibitor]: SUBCUTANEOUS, Species: RAT, Strain/Sex: F344/MALE, Target Tissue: Type of Lesion: INJECTION SITE: SARCOMA, Dose [Carcinogen]: 2.5 MG PER SITE INJECTED INTO THIGH OF BOTH HIND LIMBS, Promoter: NONE USED) 100%, 100%, 0%, not significant; (Dose [Inhibitor]: 0, 60 UMOL (FE) INJECTED WITH CARCINOGEN INTO THIGH OF BOTH HIND LIMBS (STUDY DURATION: 79 WK), Route [Inhibitor]: INTRAMUSCULAR, Species: RAT, Strain/Sex: F344/MALE, Target Tissue: Type of Lesion: INJECTION SITE: SARCOMA, Dose [Carcinogen]: 2.5 MG PER SITE INJECTED INTO THIGH OF BOTH HIND LIMBS ONCE, Promoter: NONE USED) 100%, 35%, 65%, not calculated.

Regarding `CN(C)CCOc1ccc([C@H]2C[C@]3(C)[C@@H](O)CC[C@H]3[C@@H]3CCc4cc(O)ccc4[C@H]32)cc1`, under “Carcinogen: ESTRADIOL, 50-28-2, Dose [Inhibitor]: 0, 25 MG/PELLET 2 PELLETS IMPLANTED EVERY 3 MO BEGINNING 15 D PRIOR TO CARCINOGEN DOSE (STUDY DURATION: 8 MO), Route [Inhibitor]: SUBCUTANEOUS IMPLANT, Species: HAMSTER, Strain/Sex: SYRIAN/MALE, Target Tissue: Type of Lesion: KIDNEY: TUMOR, Dose [Carcinogen]: 25 MG PELLET IMPLANTED EVERY 3 MO, Promoter: NONE USED”, the “tumour outcome (control, treated, inhibition, significance)” value was 5/5 (100%), 7/8 (88%), 12%, not significant.

For the compound `C/C(=C\c1ccc2c(c1)C(C)(C)CCC2(C)C)c1ccc(C(=O)O)cc1`, the “tumour outcome (control, treated, inhibition, significance)” value was 100%, 93%, 7%, not calculated (Carcinogen: 7,12-DIMETHYLBENZ[A]ANTHRACENE, 57-97-6, Dose [Inhibitor]: 0.17 NMOL IN 0.2 ML ACETONE 1 HR PRIOR TO EACH PROMOTER DOSE FOR 12 WK (STUDY DURATION: 14 WK), Route [Inhibitor]: DERMAL, Species: MOUSE, Strain/Sex: SENCAR/FEMALE, Target Tissue: Type of Lesion: SKIN: PAPILLOMA, Dose [Carcinogen]: 200 NMOL IN 0.2 ML ACETONE ONCE, Promoter: 12-O-TETRADECANOYLPHORBOL-13-ACETATE, 16561-29-8); 94%, 87%, 8%, not calculated (Carcinogen: 7,12-DIMETHYLBENZ[A]ANTHRACENE, 57-97-6, Dose [Inhibitor]: 0.17 NMOL IN 0.2 ML ACETONE 1 HR PRIOR TO EACH PROMOTER DOSE FOR 20 WK (STUDY DURATION: 22 WK), Route [Inhibitor]: DERMAL, Species: MOUSE, Strain/Sex: CD-1/FEMALE, Target Tissue: Type of Lesion: SKIN: PAPILLOMA, Dose [Carcinogen]: 200 NMOL IN 0.2 ML ACETONE ONCE, Promoter: 12-O-TETRADECANOYLPHORBOL-13-ACETATE, 16561-29-8); 100%, 97%, 3%, not calculated (Carcinogen: 7,12-DIMETHYLBENZ[A]ANTHRACENE, 57-97-6, Dose [Inhibitor]: 1.7 NMOL IN 0.2 ML ACETONE 1 HR PRIOR TO EACH PROMOTER DOSE FOR 12 WK (STUDY DURATION: 14 WK), Route [Inhibitor]: DERMAL, Species: MOUSE, Strain/Sex: SENCAR/FEMALE, Target Tissue: Type of Lesion: SKIN: PAPILLOMA, Dose [Carcinogen]: 200 NMOL IN 0.2 ML ACETONE ONCE, Promoter: 12-O-TETRADECANOYLPHORBOL-13-ACETATE, 16561-29-8); 94%, 69%, 27%, not calculated (Carcinogen: 7,12-DIMETHYLBENZ[A]ANTHRACENE, 57-97-6, Dose [Inhibitor]: 1.7 NMOL IN 0.2 ML ACETONE 1 HR PRIOR TO EACH PROMOTER DOSE FOR 20 WK (STUDY DURATION: 22 WK), Route [Inhibitor]: DERMAL, Species: MOUSE, Strain/Sex: CD-1/FEMALE, Target Tissue: Type of Lesion: SKIN: PAPILLOMA, Dose [Carcinogen]: 200 NMOL IN 0.2 ML ACETONE ONCE, Promoter: 12-O-TETRADECANOYLPHORBOL-13-ACETATE, 16561-29-8); 100%, 3%, 97%, not calculated (Carcinogen: 7,12-DIMETHYLBENZ[A]ANTHRACENE, 57-97-6, Dose [Inhibitor]: 17 NMOL IN 0.2 ML ACETONE 1 HR PRIOR TO EACH PROMOTER DOSE FOR 12 WK (STUDY DURATION: 14 WK), Route [Inhibitor]: DERMAL, Species: MOUSE, Strain/Sex: SENCAR/FEMALE, Target Tissue: Type of Lesion: SKIN: PAPILLOMA, Dose [Carcinogen]: 200 NMOL IN 0.2 ML ACETONE ONCE, Promoter: 12-O-TETRADECANOYLPHORBOL-13-ACETATE, 16561-29-8); 94%, 0%, 100%, not calculated (Carcinogen: 7,12-DIMETHYLBENZ[A]ANTHRACENE, 57-97-6, Dose [Inhibitor]: 17 NMOL IN 0.2 ML ACETONE 1 HR PRIOR TO EACH PROMOTER DOSE FOR 20 WK (STUDY DURATION: 22 WK), Route [Inhibitor]: DERMAL, Species: MOUSE, Strain/Sex: CD-1/FEMALE, Target Tissue: Type of Lesion: SKIN: PAPILLOMA, Dose [Carcinogen]: 200 NMOL IN 0.2 ML ACETONE ONCE, Promoter: 12-O-TETRADECANOYLPHORBOL-13-ACETATE, 16561-29-8).
